Among the data in article PMC5419506, “Aromatic amino acids in the cellulose binding domain of Penicillium crustosum endoglucanase EGL1 differentially contribute to the cellulose affinity of the enzyme” (PLoS ONE, 2017) are Ka values, retold here.

This experiment concerns the target T1, eGFP-Linker-CBD (CBD domain of Penicillium crustosum endoglucanase EGL1) (Penicillium crustosum, UniProt U6A8H3).
T1 construct: N-terminal eGFP fusion in pET-28a, Ni-column, E. coli BL21(DE3)
T1 sequence (U6A8H3 301-459): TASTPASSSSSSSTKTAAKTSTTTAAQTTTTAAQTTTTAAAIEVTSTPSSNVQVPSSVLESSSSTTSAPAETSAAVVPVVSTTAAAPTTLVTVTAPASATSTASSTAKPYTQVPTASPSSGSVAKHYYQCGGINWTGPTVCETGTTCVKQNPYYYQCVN
As to the kind of experiment: isothermal titration calorimetry. Conditions: 20 mM Tris-HCl pH 7.5, 50 mM NaCl; 25 °C; multi-site binding model; unit not given.

Compound `OC[C@H]1O[C@@H](O[C@H]2[C@H](O)[C@@H](O)[C@H](O[C@H]3[C@H](O)[C@@H](O)[C@H](O[C@H]4[C@H](O)[C@@H](O)[C@H](O[C@H]5[C@H](O)[C@@H](O)C(O)O[C@@H]5CO)O[C@@H]4CO)O[C@@H]3CO)O[C@@H]2CO)[C@H](O)[C@@H](O)[C@@H]1O` (stereo partly shown) [cellopentose] yielded a Ka of 2.3E4.
